Test results reported in US7223754B2, “Thiazolidinone, oxazolidinone, and imidazolone derivatives for treating lower urinary tract and related disorders” (Dynogen Pharmaceuticals, Inc., priority 2003, dated 2007).

Key:
[1] = tested on: Female Sprague-Dawley rats; conditions: rat, in vivo
[2] = tested on: HVA calcium channels; type: cell-based, rat; conditions: n=4; 1 µM

Substance | bladder capacity versus irritation control, Dunn's MCT [1] | directly measured bladder capacity, % of control values [1] | effects on other micturition parameters, such as voiding efficiency [1] | intermicturition interval versus irritation control (AA/Veh 3), Dunn's multiple comparison test [1] | intermicturition interval, % of pre-irritation control values [1] | calcium current amplitudes, % of control amplitudes [2]
ω-Conotoxin MVIIA | significantly different than irritation control | 69% | no untoward effects on other micturition parameters | significantly different than irritation control | 81% | –
Omega-conotoxin GVIA | – | – | – | – | – | 72.8±1.6%
